From patent US12240854B2, “TRAF 6 inhibitors” (Helmholtz Zentrum München - Deutsches Forschungszentrum für …, priority 2018, dated 2025)
Entries after “also recorded” stand apart in the source; their conditions may differ.

Columns and labels:
MURF/TRIM63 = molecular target: T1, MURF/TRIM63 (Homo sapiens, UniProt Q969Q1); test: In vitro ubiquitination assay, TRIM63 ubiquitin ligase kit; format: biochemical; conditions: K48 chain formation
T1 construct: purchased Boston Biochem
Experimental: (§1) For analysis of cIAP1, MDM2, TRIM63, RNF4, ITCH and E6AP mediated poly-ubiquitination, the respective ubiquitin ligase kit from Boston Biochem (K-102, K-260, K-200B, K-220, K-240 and K-270) was used. Here, reaction buffer, E1, E2 and E3 enzyme (and p53 substrate in case of MDM2) were mixed and pre-incubated with compound or DMSO for 5 minutes at room temperature before adding Mg^2+-ATP and mono-ubiquitin for reaction start. Ubiquitination was visualized by Western Blot analyses.

ADME: plasma stability = format: in vitro ADME
Experimental: All ADME (plasma stability, plasma protein binding, microsomal stability, Log D, Caco-2 assay, CYP450 inhibition and hERG predictor assay) as well as pharmacokinetic studies (Tmax, Cmax, AUC0-240min, Mean Residence Time, Elimination half life, Elimination rate constant, Volume of Distribution and Clearance) of C25-140 (compound 3) were conducted by Bienta Enamine Biology Services of Bienta/Enamine Ltd.

[1] = tested on: Diet-Induced-Obesity (DIO) mice; test: Diet-Induced-Obesity (DIO) mouse study; format: in vivo; conditions: 7.4 mg/kg IP once daily
Experimental: Mice were fed a high-fat-diet until they reached a body weight of at least 40 g and developed […]. These mice were separated in control group and a group for C25-140 (compound 3) injection. Mice were treated every day with 14 μmol/kg (=7.4 mg/kg) C25-140 intraperitoneally for a period of 20 days. Thereby, C25-140 was dissolved in 2.9% DMSO, 1.5% Tween-80 and 1×PBS. Every day before injection, the body weight and food intake were measured. On day 20, mice were sacrificed two hours after compound injection and […] white adipose tissue from both body sites was removed, frozen in liquid nitrogen and stored at −80° C.

ITCH = molecular target: T2, ITCH (Homo sapiens, UniProt Q96J02); test: In vitro ubiquitination assay, ITCH ubiquitin ligase kit; format: biochemical
T2 construct: purchased Boston Biochem
Experimental: as §1

[2] = tested on: 87 primary molecular targets (kinases, non-kinase enzymes, nuclear receptors, GPCRs, transporters and ion channels); test: SafetyScreen87 (Eurofins Cerep Panlabs); format: binding; conditions: 10 μM
Experimental: The SafetyScreen87, a total of 87 assays, was carried out at Eurofins Cerep Panlabs. 87 primary molecular targets including 13 enzyme assays (kinases and non-kinase enzymes) and 74 binding assays (nuclear receptors, GPCRs, transporters and ion channels) were performed at a compound concentration of 10 μM C25-140. Each of the 87 assay reactions was performed at the optimised condition that was historically available at Eurofins Cerep Panlabs. In parallel to C25-140, a reference compound for each of the 87 reactions was concurrently tested to guarantee optimal setting of the assays. In this study the reference compounds performed in the same range as historic Ki values.

[3] = tested on: Collagen-Induced Arthritis (CIA) Model in DBA1/J mice; test: Collagen-Induced Arthritis (CIA) model; format: in vivo, mouse
Experimental: In order to test the potential of C25-140 to ameliorate RA symptoms, a Collagen-Induced Arthritis (CIA) Model in DBA1/J mice was performed by Washington Biotechnology, Inc. (Baltimore, USA). Each group of ten mice was subjected to a single subcutaneous injection of collagen/complete Freund's Adjuvant emulsion (0.05 ml/mouse; 100 μg collagen/CFA). After 20 days (day 21), mice were booster injected with collagen (0.05 ml/mouse; 100 μg/mouse collagen in Incomplete Freund's Adjuvant). On day 28, mice were scored for their Arthritic Index (AI) and 14 days intraperitoneally dosed twice daily with 6 mg/kg, 10 mg/kg and 14 mg/kg C25-140, respectively. Mice were scored of macroscopic signs of arthritis daily. Thereby, the following scoring index was applied to each individual paw: 0=no visible effects of arthritis; 1=edema and/or erythema of 1 digit; 2=edema and/or erythema of 2 digits; 3=edema and/or erythema of more than 2 digits; 4=severe arthritis of entire paw and digits. Single paw scores were added and recorded. On day 42, animals were euthanized, limbs were collected and histopathology was performed using Toluidine blue staining with scoring of several parameters.

[4] = tested on: HBL1 (ABC-DLBCL-MYD88 L265P); test: Cell viability in DLBCL, HBL1; format: cell-based; conditions: HBL1, 30 μM, added at day 0, 4 and 8, 9 days
Experimental: To determine the effects of C25-140 on MYD88-dependent ABC-DLBCL, we chose the HBL1 (ABC-DLBCL-MYD88 L265P), U2932 (ABC DLBCL-MYD88 wt) and BJAB (GCB DLBCL) cell lines. 1×10^6 cells of each cell line was seeded in 5 ml and treated with 30 μM compound C25-140 (compound 3) or DMSO. The entire experiment was carried out for 9 days. Every day 500 μl were taken and viable cell number was acquired using the ViCEII cell counter (Beckmann Coulter). At days 4 and 8 of the experiment the volume was again adjusted to 5 ml and samples were supplemented with 30 μM compound C25-140 or DMSO. This process was necessary to ensure linear proliferation of DMSO treated cells. All curves of C25-140 treated samples were referred to the corresponding DMSO treated controls.

[5] = tested on: IKK kinase activity in Jurkat T-cells; test: IKK kinase assay in Jurkat T-cells; format: cell-based, human; conditions: PMA/Ionomycin
Experimental: For MEF cells, 5.5×10^5 cells were seeded, then treated with compound for 6 hours and eventually stimulated with IL-1β or TNFα for 8 minutes. 1×10^6 Jurkat T-cells were treated with compound for 6 hours and finally stimulated with PMA (400 ng/ml) and lonomycin (600 ng/ml) for 8 minutes. After cell lysis in Co-IP lysis buffer (150 mM NaCl; 25 mM Hepes (pH 7.5); 0.2% NP-40; 1 mM Glycerol; 10 mM NaF; 8 mM β-Glycerophosphat; 1 mM DTT; 300 μM Sodium-vanadate; complete protease inhibitor), input samples were taken and the supernatant was then incubated with 6 μL IKKγ antibody FL-419 (Santa Cruz Biotechnology). Upon incubation with Protein-G-Sepharose beads (GE Healthcare), beads were washed in Co-IP wash buffer (150 mM NaCl; 25 mM Hepes (pH 7.5); 0.2% NP-40; 1 mM Glycerol) and transferred into kinase reaction buffer ([…] HEPES pH7.9; 10 mM MgCl2; 20 μM ATP; 20 mM β-Glycerophosphat; 200 μM Sodium-Vanadate; 1 mM DTT) supplemented with […] GST-IκBα (1-53) and 0.5 μL ^32P-γ-ATP. After 30 minutes incubation at 37° C., reaction was stopped and analyzed by autoradiography as well as Western Blot after separation on SDS-PAGE.

T1 sequence (Q969Q1 whole entry): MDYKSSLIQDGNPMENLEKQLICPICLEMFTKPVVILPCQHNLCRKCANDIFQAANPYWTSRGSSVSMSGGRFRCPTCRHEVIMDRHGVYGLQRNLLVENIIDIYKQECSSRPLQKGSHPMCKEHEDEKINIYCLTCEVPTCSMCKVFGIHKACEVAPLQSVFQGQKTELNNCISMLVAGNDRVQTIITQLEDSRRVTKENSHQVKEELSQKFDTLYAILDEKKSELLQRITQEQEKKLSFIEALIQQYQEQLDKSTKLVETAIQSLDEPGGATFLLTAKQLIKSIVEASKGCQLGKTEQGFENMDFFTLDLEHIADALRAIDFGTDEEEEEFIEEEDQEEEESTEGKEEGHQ
T2 sequence (Q96J02 whole entry): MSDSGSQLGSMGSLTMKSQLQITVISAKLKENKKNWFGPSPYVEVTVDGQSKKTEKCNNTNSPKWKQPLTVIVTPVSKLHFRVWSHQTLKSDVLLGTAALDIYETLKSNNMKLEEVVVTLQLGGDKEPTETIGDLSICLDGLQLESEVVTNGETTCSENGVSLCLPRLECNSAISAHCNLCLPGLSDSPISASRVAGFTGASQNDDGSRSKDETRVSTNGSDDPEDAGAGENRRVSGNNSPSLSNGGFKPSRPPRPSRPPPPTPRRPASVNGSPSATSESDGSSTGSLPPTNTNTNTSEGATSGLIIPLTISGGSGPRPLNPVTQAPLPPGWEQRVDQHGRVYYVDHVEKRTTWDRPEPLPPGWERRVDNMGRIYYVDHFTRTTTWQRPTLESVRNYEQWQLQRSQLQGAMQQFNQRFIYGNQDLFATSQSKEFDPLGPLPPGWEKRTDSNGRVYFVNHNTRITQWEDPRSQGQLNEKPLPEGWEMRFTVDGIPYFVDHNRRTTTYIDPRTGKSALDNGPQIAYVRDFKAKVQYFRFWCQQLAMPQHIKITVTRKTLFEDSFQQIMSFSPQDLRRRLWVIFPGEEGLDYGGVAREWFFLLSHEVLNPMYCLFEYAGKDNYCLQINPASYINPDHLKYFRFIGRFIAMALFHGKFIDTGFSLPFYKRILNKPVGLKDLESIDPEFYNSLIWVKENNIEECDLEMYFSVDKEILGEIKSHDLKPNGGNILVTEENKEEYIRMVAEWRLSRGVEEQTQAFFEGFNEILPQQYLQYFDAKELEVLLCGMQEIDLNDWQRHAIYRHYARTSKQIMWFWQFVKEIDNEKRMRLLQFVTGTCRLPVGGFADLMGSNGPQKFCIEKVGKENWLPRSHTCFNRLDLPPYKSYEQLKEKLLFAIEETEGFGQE

Cc1nn(-c2ccc3nnc(C)n3n2)c(C)c1CCC(=O)N1CCC(Cc2ccccc2)CC1 [Example C25-140, 1-(4-Benzylpiperidin-1-yl)-3-(3,5-dimethyl-1-(3-methyl-[1,2,4]-triazolo-[4,3-b]-pyridazin-6-yl)-1H-pyrazol-4-yl)-propan-1-one]
S5A ubiquitination by MURF/TRIM63 (MURF/TRIM63): not influenced; also recorded: not affected
plasma stability (ADME: plasma stability): stable
food intake ([1]; 20 days): did not differ; also recorded: remains unaffected
body weight gain ([1]; 20 days, high-fat-diet): reduces gain of weight; also recorded: hardly increased body weight; also recorded: milder body weight gain
mRNA levels of IL-1β and VCAM in epidermal white adipose tissue ([1]; day 20): reduces IL-1β expression; also recorded: significantly reduced; also recorded: decreased
ITCH auto-ubiquitination (ITCH): not influenced; also recorded: not affected
effect on / binding to the 87 SafetyScreen87 targets [2]: no significant binding; also recorded: did not markedly affect any of the 87 molecular targets
arthritic index (AI) ([3]; 6, 10 and 14 mg/kg IP twice daily, 14 days): dose-dependently reduced
RA symptoms / disease outcome (in words) ([3]; CIA mouse model): ameliorates RA disease outcomes; also recorded: successfully counteracted clinical symptoms of RA and reversed the disease state; also recorded: eases symptoms
histological score of the limbs (inflammation, pannus formation, cartilage damage, bone resorption) ([3]; day 42): dose-dependently improves RA symptoms; also recorded: attenuated
arthritic index (AI) ([3]; doses of 10 mg/kg and 14 mg/kg IP twice daily): almost completely ameliorated the arthritic index to baseline levels
body weight ([3]; throughout the study): did not show any signs of reduction; also recorded: do not show any signs of weight loss
viability of MYD88-dependent ABC-DLBCL [4]: selectively kills ABC-DLBCL with chronic MYD88 signaling; also recorded: significantly reduced viability; also recorded: diminished
IKK kinase activity [5]: reduced; also recorded: diminished
